Data from PubChem BioAssay (NCI).
Where “and” joins values, the source holds several entries; their conditions need not be identical. Identical values can stand only once.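 Following 48 hours of exposure in 96-well plates, responses at five concentrations were used to interpolate endpoints linearly. GI50 = concentration required for 50% inhibition of growth. The concentration for full growth arrest is given as TGI.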

What was measured:
Assay in all cases: inhibition of tumour cell growth, NCI panel, 48 h
[1] = tested on: DLD-1 colon
[2] = tested on: 786-0 renal
[3] = tested on: HOP-92 NSCLC
[4] = tested on: OVCAR-5 ovarian
[5] = tested on: SK-MEL-5 melanoma
[6] = tested on: UACC-62 melanoma
[7] = tested on: COLO 205 colon
[8] = tested on: KM20L2 colon
[9] = tested on: RPMI-8226 leukemia
[10] = tested on: MCF7 breast

## COc1cccc(C=O)c1C(=O)c1cc(O)ccc1O
[1]
  TGI: 30.3 µM
[2]
  TGI: > 100 µM
[3]
  TGI: 33.1 µM
[4]
  TGI: > 100 µM
[5]
  TGI: > 100 µM
[6]
  TGI: > 100 µM
[7]
  TGI: 34.1 µM
[8]
  TGI: > 100 µM

## COc1ccc(Nc2nc3cc(C(F)(F)F)ccc3nc2-c2ccccc2)cc1OC
[1]
  TGI: > 100 µM
[2]
  TGI: > 100 µM
[3]
  TGI: 9.1 µM
[4]
  TGI: > 100 µM
[5]
  TGI: > 100 µM
[6]
  TGI: > 100 µM
[7]
  TGI: > 100 µM

## O=C(C=Nc1ccccc1C(=O)[O-])c1cccs1.O=C(C=Nc1ccccc1C(=O)[O-])c1cccs1.[Ni+2]
[2]
  TGI: > 100 µM
[3]
  TGI: > 100 µM
[4]
  TGI: > 100 µM
[6]
  TGI: > 100 µM
[7]
  TGI: > 100 µM
[8]
  TGI: > 100 µM

## O=[N+]([O-])c1cc(-c2nc(=S)[nH][nH]2)ccc1O
[1]
  TGI: > 100 µM
[2]
  TGI: > 100 µM
[4]
  TGI: > 100 µM
[5]
  TGI: > 100 µM
[6]
  TGI: > 100 µM
[7]
  TGI: 35.9 µM
[8]
  TGI: > 100 µM

## N/C=N/S(=O)(=O)c1ccc(NC(=O)COC(=O)c2cccc3c(=O)c4ccccc4[nH]c23)cc1
[1]
  TGI: > 100 µM
[2]
  TGI: > 100 µM
[5]
  TGI: > 100 µM
[6]
  TGI: > 100 µM
[7]
  TGI: > 100 µM
[9]
  TGI: > 100 µM

## c1ccc2c(c1)SC(=C1Sc3ccccc3S1)S2
[1]
  TGI: > 100 µM
[2]
  TGI: > 100 µM
[3]
  TGI: > 100 µM
[6]
  TGI: > 100 µM
[7]
  TGI: > 100 µM
[8]
  TGI: > 100 µM

## C/C(=N\NC(=S)N1CCN(c2ccccn2)CC1)c1ccccn1
[1]
  TGI: 15.2 µM
[2]
  GI50: 0.00656 µM
  TGI: 13.5 µM
[3]
  GI50: 0.00295 µM
  TGI: 13 µM
[4]
  GI50: 0.159 µM
  TGI: 13.4 µM
[5]
  GI50: 0.0688 µM
  TGI: 13.5 µM
[6]
  GI50: < 0.0114 µM
[10]
  TGI: 11.4 µM
[9]
  TGI: 23.6 µM

## Cc1cc(=O)[nH]c(CNC(=O)c2ccc3ccccc3c2)n1
[1]
  TGI: > 100 µM
[2]
  TGI: > 100 µM
[3]
  TGI: > 100 µM
[4]
  TGI: > 100 µM
[5]
  TGI: > 100 µM
[6]
  TGI: > 100 µM
[7]
  TGI: > 100 µM
[8]
  TGI: > 100 µM

## COC(=O)[C@H](CC(C)C)NC(=O)[C@H](Cc1ccccc1)N1CC2C=CC1C2 (stereo partly drawn)
[2]
  TGI: > 100 µM
[3]
  TGI: > 100 µM
[4]
  TGI: > 100 µM
[5]
  TGI: > 100 µM
[6]
  TGI: > 100 µM
[7]
  TGI: > 100 µM
[9]
  TGI: 79.2 µM
[8]
  TGI: > 100 µM

## CN1C(=O)CC2(C)c3cc(O)cc(Br)c3N(C)C12 (stereo not drawn)
[2]
  TGI: > 100 µM
[3]
  TGI: > 100 µM
[4]
  TGI: > 100 µM
[5]
  TGI: > 100 µM
[6]
  TGI: > 100 µM
[7]
  TGI: > 100 µM
[8]
  TGI: > 100 µM

## COC(=O)c1cc(NC(=O)c2cc(NC(=O)c3cc([N+](=O)[O-])n(C)c3)cn2C)cn1C
[2]
  GI50: > 100 µM
  TGI: > 100 µM
[3]
  GI50: 13.2 µM
  TGI: 85.2 µM
[4]
  GI50: 30.9 µM
  TGI: > 100 µM
[5]
  GI50: 5.03 µM
  TGI: 59 µM
[6]
  GI50: 23.8 µM
  TGI: > 100 µM
[7]
  GI50: 45.9 µM
  TGI: > 100 µM
[10]
  GI50: > 100 µM
  TGI: > 100 µM
[9]
  GI50: > 100 µM
  TGI: > 100 µM

## COc1ccc(-c2cc(/C=C3\C(=O)Nc4cc(Cl)ccc43)[nH]n2)cc1
[2]
  GI50: 9.71 µM
  TGI: > 100 µM
[3]
  GI50: 2.33 µM
  TGI: 56.9 µM
[4]
  GI50: 5.89 µM
  TGI: > 100 µM
[5]
  GI50: 1.9 µM
  TGI: 8.32 µM
[6]
  GI50: 2.46 µM
  TGI: > 100 µM
[7]
  GI50: 2.06 µM
  TGI: 5.51 µM
[10]
  GI50: 2.19 µM
  TGI: 37.3 µM
[9]
  GI50: 3.3 µM
  TGI: 40 µM

## O=C(CN1CCN(Cc2ccccc2Cl)CC1)NC1CC(=O)c2c(Br)sc(Br)c21 (stereo not drawn)
[2]
  GI50: 19.4 µM
  TGI: 40.4 µM
[3]
  GI50: 14.1 µM
  TGI: 31.6 µM
[4]
  GI50: 51.4 µM
  TGI: > 100 µM
[5]
  GI50: 20.3 µM
  TGI: 38.7 µM
[6]
  GI50: 16.3 µM
  TGI: 31 µM
[7]
  GI50: 21.2 µM
  TGI: 38.4 µM
[10]
  GI50: 18.1 µM
  TGI: 33.8 µM
[9]
  GI50: 16.6 µM
  TGI: 38.5 µM

## N#Cc1c(NCc2ccccc2)nc(NCc2ccccc2)c(C#N)c1-c1ccc(Cl)cc1
[2]
  GI50: > 50 µM and 41.5 µM
  TGI: > 100 µM
[3]
  GI50: > 50 µM
  TGI: > 50 µM
[4]
  GI50: > 50 µM and 77.3 µM
  TGI: > 100 µM
[5]
  GI50: > 100 µM
  TGI: > 100 µM
[6]
  GI50: > 50 µM and 37.8 µM
  TGI: > 100 µM
[7]
  GI50: > 50 µM and 76 µM
  TGI: > 100 µM
[10]
  GI50: > 50 µM and 66.8 µM
  TGI: > 100 µM
[9]
  GI50: > 50 µM and 50.3 µM
  TGI: > 100 µM

## C/C(CCn1[nH]c(=O)ccc1=O)=N\NC(=O)C(N)=O
[1]
  TGI: > 100 µM
[2]
  TGI: > 100 µM
[3]
  TGI: > 100 µM
[4]
  TGI: > 100 µM
[5]
  TGI: > 100 µM
[6]
  TGI: > 100 µM
[7]
  TGI: > 100 µM
[8]
  TGI: > 100 µM

## NC(=O)c1cccc2c(N[C@H](CN3CCC3)c3ccc(Cl)c(C(F)(F)F)c3)ncnc12
[2]
  GI50: 0.0921 µM
  TGI: 1.76 µM
[3]
  GI50: 0.14 µM
  TGI: 2.27 µM
[4]
  GI50: 1.77 µM
  TGI: 13.5 µM
[5]
  GI50: 1.7 µM
  TGI: 3.27 µM
[6]
  GI50: 1.13 µM
  TGI: 8.62 µM
[7]
  GI50: 0.837 µM
  TGI: 2.66 µM
[10]
  GI50: 0.396 µM
  TGI: 3.75 µM
[9]
  GI50: 2.69 µM
  TGI: 9.06 µM
